Source: patent US12180207B2 (ARRAY BIOPHARMA INC., priority 2018, dated 2024)

Assays:
[1] = biological target: recombinant human FGFR1 catalytic domain (amino acids 308-731) (Homo sapiens (Human), UniProt P11362); experiment: FGFR1 enzyme activity assay (LanthaScreen TR-FRET); type: biochemical; conditions: 20 min incubation at 22° C., average of multiple determinations if made, read-out: FGFR1 Enz FRET IC50
Outline: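 His-tagged FGFR1 kinase domain with 100 nM Alexa Fluor 647-poly-GT peptide and ATP in pH 7.5 HEPES/MgCl2 buffer with 2% DMSO, 20 min at 22 °C. Quenched with EDTA plus 2 nM Eu-PY20 antibody and read after 60 min. IC50 comes from a 4-parameter fit of percent of control.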

[2] = biological target: FGFR3 (SEQ ID NO: 5, amino acids 449-759) (Homo sapiens (Human), UniProt P22607); experiment: LC/MS FGFR3 kobs assay (covalent protein modification); type: binding; conditions: 500 nM FGFR3, 3 μM compound
Outline: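 Timed reactions were stopped with 0.4% formic acid, and covalent adduct formation was measured by LC/MS on a Q-TOF with deconvolution of protein masses. Modified signal was normalized to DMSO-control unmodified protein at each time point; percent unmodified protein was fit to exponential decay to give kobs.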

[3] = biological target: recombinant human FGFR3 (amino acids R397-T806) (Homo sapiens (Human), UniProt P22607); experiment: FGFR3 enzyme activity assay (LanthaScreen TR-FRET); type: biochemical; conditions: 25 μM ATP, 10 min incubation at 22° C., average of multiple determinations if made, read-out: FGFR3 Enz FRET IC50
Outline: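 GST-HIS6-tagged human FGFR3 (R397-T806) was reacted with 100 nM Alexa Fluor 647-Poly-GT substrate and 25 μM ATP plus compound in HEPES/MgCl2/Triton buffer, pH 7.5, 2% DMSO, for 10 min at 22 °C.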

[4] = biological target: recombinant human FGFR2 cytoplasmic domain (amino acids 403-822) (Homo sapiens (Human), UniProt P21802); experiment: FGFR2 enzyme activity assay (LanthaScreen TR-FRET); type: biochemical; conditions: 15 μM ATP, 20 min incubation at 22° C., average of multiple determinations if made, read-out: FGFR2 Enz FRET IC50
Outline: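 His-tagged FGFR2 cytoplasmic domain ([…]) with 100 nM Alexa Fluor 647-poly-GT peptide and 15 μM ATP in HEPES/MgCl2/Triton buffer, pH 7.5, 2% DMSO, 20 min at 22 °C. EDTA-quenched, Eu-PY20 antibody added, TR-FRET read after 60 min.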

[5] = biological target: phosphorylated FGFR3 (SEQ ID NO: 5, amino acids 449 to 759) (Homo sapiens (Human), UniProt P22607); experiment: FGFR enzyme binding assay (HTRF tracer displacement), FGFR3; conditions: 5 nM phosphorylated FGFR3, average of multiple determinations if made
Outline: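 Compounds were tested for displacement of a tracer from human FGFR kinase in a time-resolved FRET binding format. After 60 minutes at 22° C, signal was read at two wavelengths and converted to percent of control, normalised between untreated wells and 1 μM reference inhibitor.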

Chain of recombinant human FGFR2 cytoplasmic domain (amino acids 403-822) (P21802 402-821): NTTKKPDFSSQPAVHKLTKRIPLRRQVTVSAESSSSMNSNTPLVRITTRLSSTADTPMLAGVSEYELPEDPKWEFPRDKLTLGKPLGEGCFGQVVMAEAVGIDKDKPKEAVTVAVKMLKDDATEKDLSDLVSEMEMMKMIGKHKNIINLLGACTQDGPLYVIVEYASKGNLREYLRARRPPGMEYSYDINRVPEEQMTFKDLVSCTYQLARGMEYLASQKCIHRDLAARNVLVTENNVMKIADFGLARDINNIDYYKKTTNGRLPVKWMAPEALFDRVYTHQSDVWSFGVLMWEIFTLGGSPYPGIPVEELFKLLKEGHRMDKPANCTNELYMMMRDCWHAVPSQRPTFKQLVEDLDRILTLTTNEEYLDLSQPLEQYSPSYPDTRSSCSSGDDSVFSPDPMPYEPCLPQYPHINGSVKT
Chain of recombinant human FGFR3 (amino acids R397-T806) (P22607 397-806): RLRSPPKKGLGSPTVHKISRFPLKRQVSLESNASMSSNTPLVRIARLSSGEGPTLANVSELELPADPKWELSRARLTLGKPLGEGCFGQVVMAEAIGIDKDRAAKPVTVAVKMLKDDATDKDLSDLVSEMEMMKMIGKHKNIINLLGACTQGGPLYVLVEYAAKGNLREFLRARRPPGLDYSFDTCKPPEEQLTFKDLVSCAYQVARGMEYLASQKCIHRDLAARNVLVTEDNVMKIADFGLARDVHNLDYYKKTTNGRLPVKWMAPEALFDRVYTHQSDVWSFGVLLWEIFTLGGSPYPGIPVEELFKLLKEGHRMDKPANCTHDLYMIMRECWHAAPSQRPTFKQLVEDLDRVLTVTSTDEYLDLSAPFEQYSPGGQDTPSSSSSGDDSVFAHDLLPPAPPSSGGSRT
Chain of FGFR3 (SEQ ID NO: 5, amino acids 449-759) (P22607 449-759): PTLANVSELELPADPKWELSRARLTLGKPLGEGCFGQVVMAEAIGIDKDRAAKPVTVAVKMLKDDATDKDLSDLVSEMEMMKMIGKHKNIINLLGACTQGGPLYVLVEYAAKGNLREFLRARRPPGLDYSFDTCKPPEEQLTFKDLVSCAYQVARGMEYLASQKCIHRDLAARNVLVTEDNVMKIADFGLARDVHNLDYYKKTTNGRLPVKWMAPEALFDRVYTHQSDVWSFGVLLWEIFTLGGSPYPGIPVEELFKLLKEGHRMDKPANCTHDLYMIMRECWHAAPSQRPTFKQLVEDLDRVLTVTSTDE
Chain of phosphorylated FGFR3 (SEQ ID NO: 5, amino acids 449 to 759) (P22607 449-759): as above
Chain of recombinant human FGFR1 catalytic domain (amino acids 308-731) (P11362 other isoform, or with tags, fused parts or gaps): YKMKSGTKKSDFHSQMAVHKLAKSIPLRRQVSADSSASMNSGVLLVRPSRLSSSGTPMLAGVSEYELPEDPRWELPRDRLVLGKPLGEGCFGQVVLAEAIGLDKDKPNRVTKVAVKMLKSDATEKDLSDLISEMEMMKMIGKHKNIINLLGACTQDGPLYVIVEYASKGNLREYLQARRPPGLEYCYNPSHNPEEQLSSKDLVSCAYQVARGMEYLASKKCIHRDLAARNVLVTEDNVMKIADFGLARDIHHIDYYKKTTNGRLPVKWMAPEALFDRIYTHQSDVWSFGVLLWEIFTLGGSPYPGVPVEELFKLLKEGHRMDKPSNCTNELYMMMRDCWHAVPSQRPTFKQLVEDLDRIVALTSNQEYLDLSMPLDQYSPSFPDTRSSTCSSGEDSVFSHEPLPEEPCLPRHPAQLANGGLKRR

Row | Compound | IC50 [1] | FGFR3 Enz kobs [2] | IC50 [3] | IC50 [4] | IC50 [5]
1 | C=CC(=O)Nc1cccc(C(=O)N2CCC[C@@H](n3cc(-c4cc(OC)c5c(C#N)cnn5c4)cn3)C2)c1 [Example 24, (R)-N-(3-(3-(4-(3-cyano-4-methoxypyrazolo[1,5-a]pyridin-6-yl)-1H-pyrazol-1-yl)piperidine-1-carbonyl)phenyl)acrylamide] | 63 nM | 0.00708 min⁻¹ | 31 nM | 23 nM | 69 nM
2 | C=CC(=O)N1CC[C@H](C(=O)N2CCC(n3cc(-c4cc(OC)c5c(C#N)cnn5c4)cn3)CC2)C1 [Example 28, (S)-6-(1-(1-(1-acryloylpyrrolidine-3-carbonyl)piperidin-4-yl)-1H-pyrazol-4-yl)-4-methoxypyrazolo[1,5-a]pyridine-3-carbonitrile] | 18 nM | 0.00294 min⁻¹ | 9 nM | 5 nM | 17 nM
3 | C=CC(=O)N1CC(C(=O)N2C3CCC2CN(c2ccc(-c4cc(OC)c5c(C#N)cnn5c4)cn2)C3)C1 [Example 50, 6-(6-(8-(1-acryloylazetidine-3-carbonyl)-3,8-diazabicyclo[3.2.1]octan-3-yl)pyridin-3-yl)-4-methoxypyrazolo[1,5-a]pyridine-3-carbonitrile] | 24 nM | 0.04375 min⁻¹ | 10 nM | 4 nM | 3 nM
4 | C=CC(=O)N1CCC(C#N)(C(=O)N2CCC(n3cc(-c4cc(OC)c5c(C#N)cnn5c4)cn3)CC2)CC1 [Example 14, 6-(1-(1-(1-acryloyl-4-cyanopiperidine-4-carbonyl)piperidin-4-yl)-1H-pyrazol-4-yl)-4-methoxypyrazolo[1,5-a]pyridine-3-carbonitrile] | 8 nM | 0.00997 min⁻¹ | 3 nM | 3 nM | 7 nM
5 | C=CC(=O)N1CC(C(=O)N2CC[C@H](n3cc(-c4cc(OC)c5c(C#N)cnn5c4)cn3)C2)C1 [Example 73, (S)-6-(1-(1-(1-acryloylazetidine-3-carbonyl)pyrrolidin-3-yl)-1H-pyrazol-4-yl)-4-methoxypyrazolo[1,5-a]pyridine-3-carbonitrile] | 20 nM | 0.00908 min⁻¹ | 4 nM | 4 nM | 7 nM
6 | C=CC(=O)Nc1ccc(C(=O)N2CC[C@H](n3cc(-c4cc(OC)c5c(C#N)cnn5c4)cn3)C2)cc1C [Example 70, (S)-N-(4-(3-(4-(3-cyano-4-methoxypyrazolo[1,5-a]pyridin-6-yl)-1H-pyrazol-1-yl)pyrrolidine-1-carbonyl)-2-methylphenyl)acrylamide] | 16 nM | 0.0114 min⁻¹ | 6 nM | 4 nM | 30 nM
7 | C=CC(=O)N1CC(CN2CC(n3ncc(-c4cc(OC)c5c(C#N)cnn5c4)c3C)C2)C1 [Example 92] | 285 nM | 0.00836 min⁻¹ | 39 nM | 131 nM | 49 nM
8 | C=CC(=O)N1CC(OC)(C(=O)N2CCC(n3cc(-c4cc(OC)c5c(C#N)cnn5c4)cn3)CC2)C1 [Example 41, 6-(1-(1-(1-acryloyl-3-methoxyazetidine-3-carbonyl)piperidin-4-yl)-1H-pyrazol-4-yl)-4-methoxypyrazolo[1,5-a]pyridine-3-carbonitrile] | 2 nM | 0.02709 min⁻¹ | 2 nM | 1 nM | 3 nM

Further molecules by falling IC50 [1], results first:

Row | IC50 [1] | FGFR3 Enz kobs [2] | IC50 [3] | IC50 [4] | IC50 [5] | Compound
9 | 376 nM | 0.00896 min⁻¹ | 41 nM | 127 nM | 40 nM | C=CC(=O)N1CC(C)(CN2CC(n3ncc(-c4cc(OC)c5c(C#N)cnn5c4)c3C)C2)C1 [Example 93, 6-(1-(1-((1-acryloyl-3-methylazetidin-3-yl)methyl)azetidin-3-yl)-5-methyl-1H-pyrazol-4-yl)-4-methoxypyrazolo[1,5-a]pyridine-3-carbonitrile]
10 | 197 nM | 0.04322 min⁻¹ | 19 nM | 99 nM | 2 nM | C=CC(=O)N1CC(CN2CCC(n3ncc(-c4cc(OC)c5c(C#N)cnn5c4)c3C)CC2)(OC)C1 [Example 91, 6-(1-(1-((1-acryloyl-3-methoxyazetidin-3-yl)methyl)piperidin-4-yl)-5-methyl-1H-pyrazol-4-yl)-4-methoxypyrazolo[1,5-a]pyridine-3-carbonitrile]
11 | 19 nM | 0.0205 min⁻¹ | 9 nM | 5 nM | 7 nM | C=CC(=O)Nc1ccc(C(=O)N2CC[C@@H](n3cc(-c4cc(OC)c5c(C#N)cnn5c4)cn3)C2)cc1 [Example 55, (R)-N-(4-(3-(4-(3-cyano-4-methoxypyrazolo[1,5-a]pyridin-6-yl)-1H-pyrazol-1-yl)pyrrolidine-1-carbonyl)phenyl)acrylamide]
12 | 16 nM | 0.0223 min⁻¹ | 7 nM | 5 nM | 10 nM | C=CC(=O)Nc1ccc(C(=O)N2CC[C@H](n3cc(-c4cc(OC)c5c(C#N)cnn5c4)cn3)C2)cc1 [Example 66, (S)-N-(4-(3-(4-(3-cyano-4-methoxypyrazolo[1,5-a]pyridin-6-yl)-1H-pyrazol-1-yl)pyrrolidine-1-carbonyl)phenyl)acrylamide]
13 | 11 nM | 0.08524 min⁻¹ | 3 nM | 5 nM | 1 nM | C=CS(=O)(=O)Nc1cccc(C(=O)N2CCC(n3cc(-c4cc(OC)c5c(C#N)cnn5c4)cn3)CC2)c1 [Example 188, N-(3-(4-(4-(3-cyano-4-methoxypyrazolo[1,5-a]pyridin-6-yl)-1H-pyrazol-1-yl)piperidine-1-carbonyl)phenyl)eth-enesulfonamide]
14 | 9 nM | 0.01214 min⁻¹ | 2 nM | 3 nM | 5 nM | C=CC(=O)N1CCC(F)(C(=O)N2CCC(n3cc(-c4cc(OC)c5c(C#N)cnn5c4)cn3)CC2)C1 (centres unmarked) [Example 30, 6-(1-(1-(1-acryloyl-3-fluoropyrrolidine-3-carbonyl)piperidin-4-yl)-1H-pyrazol-4-yl)-4-methoxypyrazolo[1,5-a]pyridine-3-carbonitrile]
15 | 9 nM | 0.02714 min⁻¹ | 1 nM | 3 nM | 3 nM | C=CS(=O)(=O)N[C@H]1CC[C@H](C(=O)N2CCC(n3cc(-c4cc(OC)c5c(C#N)cnn5c4)cn3)CC2)C1 [Example 190, N-((1S,3S)-3-(4-(4-(3-cyano-4-methoxypyrazolo[1,5-a]pyridin-6-yl)-1H-pyrazol-1-yl)piperidine-1-carbonyl)cyclopentyl)-ethenesulfonamide]
16 | 8 nM | 0.02377 min⁻¹ | 2 nM | 2 nM | 2 nM | C=CC(=O)N1CCC(C#N)(C(=O)N2CCC(n3cc(-c4cc(OC)c5c(C#N)cnn5c4)cn3)CC2)C1 (centres unmarked) [Example 31, 6-(1-(1-(1-acryloyl-3-cyanopyrrolidine-3-carbonyl)piperidin-4-yl)-1H-pyrazol-4-yl)-4-methoxypyrazolo[1,5-a]pyridine-3-carbonitrile]
